From patent US11524966B1 (Valo Early Discovery, Inc., priority 2017, dated 2022)

target: T1, USP28 (His-tagged USP28-FL-mammalian) (Homo sapiens, UniProt Q96RU2); experiment: Ubiquitin-Rhodamine 110 Assay for USP28 Activity, Example A-1(a); assay type: biochemical; conditions: Ubiquitin-Rhodamine 110 assay, Example A-1(a); read-out: USP28 A-1(a) IC50 range
T1 construct: Expression of USP28 (1-1077)-TEV-6*His (pTT5 vector); made in house; host or cells: Expi293f cells (pTT5 vector)
T1 sequence (Q96RU2 1-1077): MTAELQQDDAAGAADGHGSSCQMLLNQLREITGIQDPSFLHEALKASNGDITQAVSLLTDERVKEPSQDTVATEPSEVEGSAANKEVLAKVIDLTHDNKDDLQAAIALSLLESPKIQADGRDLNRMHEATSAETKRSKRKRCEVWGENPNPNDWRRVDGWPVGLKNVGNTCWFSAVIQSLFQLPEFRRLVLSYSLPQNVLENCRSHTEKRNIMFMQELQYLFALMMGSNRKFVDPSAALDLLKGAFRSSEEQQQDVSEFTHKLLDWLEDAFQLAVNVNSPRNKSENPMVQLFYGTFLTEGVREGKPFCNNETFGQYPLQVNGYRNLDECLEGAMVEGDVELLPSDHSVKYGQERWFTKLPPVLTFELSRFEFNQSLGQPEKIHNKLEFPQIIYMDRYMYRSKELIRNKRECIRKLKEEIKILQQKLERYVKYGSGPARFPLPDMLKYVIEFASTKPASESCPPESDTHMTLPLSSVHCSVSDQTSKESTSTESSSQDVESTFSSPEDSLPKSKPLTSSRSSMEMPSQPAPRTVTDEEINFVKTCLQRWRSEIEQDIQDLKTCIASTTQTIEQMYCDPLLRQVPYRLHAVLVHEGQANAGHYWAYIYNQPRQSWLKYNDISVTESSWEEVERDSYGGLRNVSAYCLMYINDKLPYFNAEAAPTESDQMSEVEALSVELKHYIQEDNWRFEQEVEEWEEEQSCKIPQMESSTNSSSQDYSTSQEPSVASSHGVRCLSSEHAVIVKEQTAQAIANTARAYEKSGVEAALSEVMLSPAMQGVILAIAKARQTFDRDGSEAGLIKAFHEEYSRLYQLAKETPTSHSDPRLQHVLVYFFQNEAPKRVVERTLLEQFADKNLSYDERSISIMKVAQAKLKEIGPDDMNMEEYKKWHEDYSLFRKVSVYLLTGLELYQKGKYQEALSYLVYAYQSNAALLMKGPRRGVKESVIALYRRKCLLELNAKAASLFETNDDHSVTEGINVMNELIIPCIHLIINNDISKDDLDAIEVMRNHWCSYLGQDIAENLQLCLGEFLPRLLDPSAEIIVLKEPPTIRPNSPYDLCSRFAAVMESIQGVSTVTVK
Outline: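 IC50 from 4-parameter logistic fit of percent inhibition versus no-enzyme and DMSO controls; compounds 25 μM to 1.3 nM, 3-fold. Ub-Rh110 cleavage (25 nM, below Km) by […] mammalian-expressed USP28-FL-His ran 45 min at room temperature, stopped with 10 mM citric acid, read ex 485/em 535.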

Compound	IC50
Cc1ccc2c(N)c(C(=O)N[C@@H]3COc4cc(N5C[C@H]6CNC[C@@H]6C5)ccc4C3)sc2n1 [Example 44, 3-amino-N-((S)-7-((3aR,6aR)-hexahydropyrrolo[3,4-c]pyrrol-2(1H)-yl)chroman-3-yl)-6-methylthieno[2,3-b]pyridine-2-carboxamide]	> 2000 nM
Nc1c(C(=O)N[C@H]2COc3cc(N4CCNCC4)ccc3C2)sc2nc(C3CC3)sc12 [Example 45]	50 to 200 nM
Cc1nc2sc(C(=O)N[C@@H]3COc4cc(N5CC6CCC(C5)N6)c(F)cc4C3)c(N)c2s1 [Example 46, N-((3S)-7-(3 8-diazabicyclo[3.2.1]octan-3-yl)-6-fluorochroman-3-yl)-6-amino-2-methylthieno[2,3-d]thiazole-5-carboxamide]	1 to 50 nM
Cc1nc2sc(C(=O)N[C@H]3COc4cc(N5CC6CCC(C5)N6)c(F)cc4C3)c(N)c2s1 [Example 47, N-((3R)-7-(3,8-diazabicyclo[3.2.1]octan-3-yl)-6-fluorochroman-3-yl)-6-amino-2-methylthieno[2,3-d]thiazole-5-carboxamide]	200 to 2000 nM
Cc1ccc2c(N)c(C(=O)N[C@H]3COc4cc(N5CCNCC5)cc(Cl)c4C3)sc2n1 [Example 48, (R)-3-amino-N-(5-chloro-7-(piperazin-1-yl)chroman-3-yl)-6-methylthieno[2,3-b]pyridine-2-carboxamide]	1 to 50 nM
Cc1ccc2c(N)c(C(=O)N[C@@H]3COc4cc(N5CCNCC5)cc(Cl)c4C3)sc2n1 [Example 49, (S)-3-amino-N-(5-chloro-7-(piperazin-1-yl)chroman-3-yl)-6-methylthieno[2,3-b]pyridine-2-carboxamide]	200 to 2000 nM
O=C(N[C@H]1COc2cc(N3CC4CCC(C3)N4)ccc2C1)c1cnc2c(c1)CCCN2 [Example 50, N-((3R)-7-(3,8-diazabicyclo[3.2.1]octan-3-yl)chroman-3-yl)-5,6,7,8-tetrahydro-1,8-naphthyridine-3-carboxamide]	50 to 200 nM
O=C(N[C@H]1COc2cc(N3CC4CCC(C3)N4)ccc2C1)c1cnc2c(c1)CCCO2 [Example 51, N-((3R)-7-(3,8-diazabicyclo[3.2.1]octan-3-yl)chroman-3-yl)-3,4-dihydro-2H-pyrano[2,3-b]pyridine-6-carboxamide]	200 to 2000 nM
O=C(N[C@H]1COc2cc(N3CCNCC3)ccc2C1)c1ccc(NCc2ccccc2)nc1 [Example 52, (R)-6-(benzylamino)-N-(7-(piperazin-1-yl)chroman-3-yl)nicotinamide]	200 to 2000 nM
C[C@H](Nc1ccc(C(=O)N[C@H]2COc3cc(N4CCNCC4)ccc3C2)cn1)c1ccccc1 [Example 53, 6-(((S)-1-phenylethyl)amino)-N-((R)-7-(piperazin-1-yl)chroman-3-yl)nicotinamide]	> 2000 nM
C[C@@H](Nc1ccc(C(=O)N[C@H]2COc3cc(N4CCNCC4)ccc3C2)cn1)c1ccccc1 [Example 54, 6-(((R)-1-phenylethyl)amino)-N-((R)-7-(piperazin-1-yl)chroman-3-yl)nicotinamide]	> 2000 nM
Cc1ccc2c(N)c(C(=O)N[C@H]3COc4c(F)c(N5CCNCC5)cc(F)c4C3)sc2n1 [Example 55, (R)-3-amino-N-(5,8-difluoro-7-(piperazin-1-yl)chroman-3-yl)-6-methylthieno[2,3-b]pyridine-2-carboxamide]	1 to 50 nM
Cc1nc2sc(C(=O)N[C@H]3COc4c(F)c(N5CCNCC5)cc(F)c4C3)c(N)c2s1 [Example 56, (R)-6-amino-N-(5,8-difluoro-7-(piperazin-1-yl)chroman-3-yl)-2-methylthieno[2,3-d]thiazole-5-carboxamide]	1 to 50 nM
O=C(N[C@H]1COc2cc(N3CCNCC3)ccc2C1)c1cnc2c(c1)CC[C@H]2O [Example 57, (R)-7-hydroxy-N-((R)-7-(piperazin-1-yl)chroman-3-yl)-6,7-dihydro-5H-cyclopenta[b]pyridine-3-carboxamide]	> 2000 nM
O=C(N[C@H]1COc2cc(N3CCNCC3)ccc2C1)c1cnc2c(c1)CC[C@@H]2O [Example 58, (S)-7-hydroxy-N-((R )-7-(piperazin-1-yl)chroman-3-yl)-6,7-dihydro-5H-cyclopenta[b]pyridine-3-carboxamide]	200 to 2000 nM
O=C(N[C@H]1COc2cc(N3CCNCC3)ccc2C1)c1cnc2c(ccn2Cc2ccccc2)c1 [Example 59, (R)-1-benzyl-N-(7-(piperazin-1-yl)chroman-3-yl)-1H-pyrrolo[2,3-b]pyridine-5-carboxamide]	1 to 50 nM
Cc1cnc2c(N)c(C(=O)N[C@H]3COc4c(C#N)c(N5CCNCC5)cc(F)c4C3)sc2n1 [Example 60, (R)-7-amino-N-(8-cyano-5-fluoro-7-(piperazin-1-yl)chroman-3-yl)-3-methylthieno[2,3-b]pyrazine-6-carboxamide]	50 to 200 nM
Cc1ccc2c(N)c(C(=O)N[C@H]3COc4cc(N5CCNCC5)c(F)c(F)c4C3)sc2n1 [Example 61, (R)-3-amino-N-(5,6-difluoro-7-(piperazin-1-yl)chroman-3-yl)-6-methylthieno[2,3-b]pyridine-2-carboxamide]	1 to 50 nM
Cc1ccc2c(N)c(C(=O)N[C@H]3COc4cc([C@H]5CCNC[C@H]5O)ccc4C3)sc2n1 [Example 62, 3-amino-N-((R)-7-((3S,4R)-3-hydroxypiperidin-4-yl)chroman-3-yl)-6-methylthieno[2,3-b]pyridine-2-carboxamide]	1 to 50 nM
Cc1ccc2c(N)c(C(=O)N[C@H]3COc4cc([C@@H]5CCNC[C@@H]5O)ccc4C3)sc2n1 [Example 63, 3-amino-N-((R)-7-((3R,4S)-3-hydroxypiperidin-4-yl)chroman-3-yl)-6-methylthieno[2,3-b]pyridine-2-carboxamide]	1 to 50 nM
Cc1ccc2c(N)c(C(=O)N[C@H]3COc4cc([C@H]5CCNC[C@@H]5O)ccc4C3)sc2n1 [Example 64, 3-amino-N-((R)-7-((3R,4R)-3-hydroxypiperidin-4-yl)chroman-3-yl)-6-methylthieno[2,3-b]pyridine-2-carboxamide]	1 to 50 nM
Cc1ccc2c(N)c(C(=O)N[C@H]3COc4cc([C@@H]5CCNC[C@H]5O)ccc4C3)sc2n1 [Example 65, 3-amino-N-((R)-7-((3S,4S)-3-hydroxypiperidin-4-yl)chroman-3-yl)-6-methylthieno[2,3-b]pyridine-2-carboxamide]	1 to 50 nM
Cc1nc2sc(C(=O)N[C@H]3COc4cc(N5CCNCC5)c(F)c(F)c4C3)c(N)c2s1 [Example 66, (R)-6-amino-N-(5,6-difluoro-7-(piperazin-1-yl)chroman-3-yl)-2-methylthieno[2,3-d]thiazole-5-carboxamide]	1 to 50 nM
Cc1cnc2c(N)c(C(=O)N[C@H]3COc4cc(N5CCNCC5)c(C#N)c(F)c4C3)sc2n1 [Example 67, (R)-7-amino-N-(6-cyano-5-fluoro-7-(piperazin-1-yl)chroman-3-yl)-3-methylthieno[2,3-b]pyrazine-6-carboxamide]	1 to 50 nM
Cc1ccc2c(N)c(C(=O)N[C@H]3COc4c(F)c(N5CCNCC5)cc(F)c4C3)oc2n1 [Example 68, (R)-3-amino-N-(5,8-difluoro-7-(piperazin-1-yl)chroman-3-yl)-6-methylfuro[2,3-b]pyridine-2-carboxamide]	200 to 2000 nM
Cc1ccc2c(N)c(C(=O)N[C@H]3COc4cc([C@H]5CCNCC5(F)F)ccc4C3)sc2n1 [Example 69, 3-amino-N-((R)-7-((R)-3,3-difluoropiperidin-4-yl)chroman-3-yl)-6-methylthieno[2,3-b]pyridine-2-carboxamide]	1 to 50 nM
Cc1ccc2c(N)c(C(=O)N[C@H]3COc4cc([C@@H]5CCNCC5(F)F)ccc4C3)sc2n1 [Example 70, 3-amino-N-((R)-7-((S)-3,3-difluoropiperidin-4-yl)chroman-3-yl)-6-methylthieno[2,3-b]pyridine-2-carboxamide]	1 to 50 nM
Cc1cnc2c(N)c(C(=O)N[C@H]3COc4cc(N5CCNCC5)ncc4C3)sc2n1 [Example 71, (R)-7-amino-3-methyl-N-(7-(piperazin-1-yl)-3,4-dihydro-2H-pyrano[3,2-c]pyridin-3-yl)thieno[2,3-b]pyrazine-6-carboxamide]	50 to 200 nM
